Data: patent US7915238B2, “Immunomodulatory compounds and methods of use thereof” (Eisai R & D Management Co., Ltd., priority 1999, dated 2011)
Like-named read-outs stand apart in the source and are kept apart here.

Key:
Human Whole Blood = assay: Cytokine release in human whole blood (ELISA); assay type: cell-based; settings: for TNF-alpha release in whole blood at 10 μM compound (% of 10 ng/ml LPS response): compounds tested at 10 μM, compared to 10 ng/ml LPS, 3-hour incubation; for EC50: whole blood, read-out: WB ED50 vs LPS@ 10 ng/ml
Description: The most readily available human system to test compound activity on monocytes/macrophages is in whole blood. Various concentrations of compounds of the invention were added as 10× stocks in 50 μl of Ca^++, Mg^++-free Hank's balanced salt solution (HBSS) followed by 50 μl of HBSS into 400 μl of heparinized whole blood obtained from normal volunteers (18-51 years old; 110-230 lb.) into the wells of plastic assay plates, for a total volume of 500 μl/well (final concentration of whole blood was 80%). After a 3-hour incubation with gentle shaking at 37° C. in a 5% CO2 atmosphere, the assay plates were centrifuged at 1000×g for 10 min. at 4° C. and plasma was drawn off and frozen at −80° C. Plasma samples were analyzed for TNF-alpha, IL-10, and IL-12 by ELISA (Genzyme Corp., Cambridge, Mass.). Each assay point was tested in triplicate.
This stimulatory activity can be compared to that of 10 ng/ml endotoxin (or LPS) present in similar incubations in the same assay.

THP-1 cells = assay: TNF-alpha promoter secreted alkaline phosphatase (TNF-PLAP) reporter in THP-1 cells; assay type: cell-based, human
Description: Similar results can be obtained when compounds of the invention are tested in a cell-culture model. In this assay, compounds of the invention are tested for their ability to stimulate secretion of alkaline phosphatase from THP-1 cells that have been transfected with the gene for secreted alkaline phosphatase under the control of the TNF-alpha promoter, as described in detail in Goto et al., Molecular Pharmacology 49; 860-873 (1996). In this assay, however, the effects of removing serum^1—a condition that may more-likely mimic a subcutaneous environment—can be evaluated. As shown in FIG. 2 and described in Table 1, results from these assays indicate that compounds of the invention stimulate induction of genes under the control of the TNF-alpha promoter when added to cells in the absence as well as the presence of serum. ^1 This is important to determine if serum components such as lipopolysaccharide binding protein are necessary for drug activity.

| Structure (SMILES) | TNF-alpha release in whole blood at 10 μM compound (% of 10 ng/ml LPS response) (Human Whole Blood) | EC50 (Human Whole Blood; vs. % of LPS at 10 ng/ml) [nM] | further results |
| --- | --- | --- | --- |
| CCCCCC/C=C\CCCC(=O)O[C@H](CCCCCCC)CCOCC(COP(=O)([O-])OCCNC(=O)NCCOP(=O)([O-])OCC(COCC[C@@H](CCCCCCC)OC(=O)CCC/C=C\CCCCCC)NC(=O)CC(=O)CCCCCCCCCCC)NC(=O)CC(=O)CCCCCCCCCCC.[Na+].[Na+] (stereo partly drawn) [compound 111232] | 158 % of LPS | – | THP-1 cell Stimulation (% of compound 100 at 10 μM) +serum (THP-1 cells): 155 % of compound 100 at 10 μM; THP-1 cell Stimulation (% of compound 100 at 10 μM) −serum (THP-1 cells): 225 % of compound 100 at 10 μM |
| CCCCCCCCCCCC(=O)CC(=O)NC(COCC[C@@H](CCCCCCC)OC(=O)CCCCCCCCCCC)COP(=O)([O-])OCCNC(=O)NCCOP(=O)([O-])OCC(COCC[C@@H](CCCCCCC)OC(=O)CCCCCCCCCCC)NC(=O)CC(=O)CCCCCCCCCCC.[Na+].[Na+] (stereo partly drawn) [compound 112066] | 162 % of LPS | 40 | THP-1 cell Stimulation (% of compound 100 at 10 μM) +serum (THP-1 cells): 330 % of compound 100 at 10 μM |
| CCCCCC/C=C\CCCC(=O)O[C@H](CCCCCCC)CCOCC(COP(=O)([O-])OCCNC(=O)CCC(=O)NCCOP(=O)([O-])OCC(COCC[C@@H](CCCCCCC)OC(=O)CCC/C=C\CCCCCC)NC(=O)CC(=O)CCCCCCCCCCC)NC(=O)CC(=O)CCCCCCCCCCC.[Na+].[Na+] (stereo partly drawn) [compound 111233] | – | – | THP-1 cell Stimulation (% of compound 100 at 10 μM) +serum (THP-1 cells): 141 % of compound 100 at 10 μM |
| CCCCCC/C=C\CCCC(=O)O[C@H](CCCCCCC)CC(=O)NC(COCC[C@H](O)CCCCCCC)COP(=O)([O-])OCCNC(=O)c1ccc(C(=O)NCCOP(=O)([O-])OCC(COCC[C@H](O)CCCCCCC)NC(=O)C[C@@H](CCCCCCC)OC(=O)CCC/C=C\CCCCCC)cc1.[Na+].[Na+] (stereo partly drawn) [compound 112861] | 0 % of LPS | – | – |
| CCCCCCCCCCCCCC(=O)N[C@H](COCC[C@@H](CCCCCCC)OCCCCCCCCCCCC)COP(=O)(O)OCCNC(=O)NCCOP(=O)(O)OC[C@@H](COCC[C@@H](CCCCCCC)OCCCCCCCCCCCC)NC(=O)CCCCCCCCCCCCC [compound 804372] | – | 400 | – |
| CCCCCC/C=C\CCCC(=O)O[C@H](CCCCCCC)CCOCC(COP(=O)([O-])OCCNC(=O)CC(=O)NCCOP(=O)([O-])OCC(COCC[C@@H](CCCCCCC)OC(=O)CCC/C=C\CCCCCC)NC(=O)CC(=O)CCCCCCCCCCC)NC(=O)CC(=O)CCCCCCCCCCC.[Na+].[Na+] (stereo partly drawn) [compound 113651] | 133 ± 4.4 (n = 4) % of LPS | 700 | THP-1 cell Stimulation (% of compound 100 at 10 μM) +serum (THP-1 cells): 215 % of compound 100 at 10 μM; THP-1 cell Stimulation (% of compound 100 at 10 μM) −serum (THP-1 cells): 254 % of compound 100 at 10 μM |
| CCCCCC/C=C\CCCC(=O)O[C@H](CCCCCCC)CC(=O)NC(COCC[C@H](O)CCCCCCC)COP(=O)([O-])OCCNC(=O)c1cccc(C(=O)NCCOP(=O)([O-])OCC(COCC[C@H](O)CCCCCCC)NC(=O)C[C@@H](CCCCCCC)OC(=O)CCC/C=C\CCCCCC)c1.[Na+].[Na+] (stereo partly drawn) [compound 112860] | 0 % of LPS | – | – |
| CCCCCCCCCCCCCCN[C@H](COCC[C@@H](CCCCCCC)OC(=O)CCCCCCCCCCC)COP(=O)(O)OCCNC(=O)NCCOP(=O)(O)OC[C@@H](COCC[C@@H](CCCCCCC)OC(=O)CCCCCCCCCCC)NCCCCCCCCCCCCCC [compound 804281] | – | 450 | – |
| CCCCCCC=CCC=CCCCCCCC(=O)OCC(COP(=O)(O)OCC(O)COP(=O)(O)OCC(COC(=O)CCCCCCC=CCC=CCCCCCC)OC(=O)CCCCCCC=CCC=CCCCCCC)OC(=O)CCCCCCC=CCC=CCCCCCC (stereo not drawn) [compound 112072] | 0 % of LPS | – | – |
| CCCCCC/C=C\CCCC(=O)O[C@H](CCCCCCC)CCOCC(COP(=O)([O-])OCCNC(=O)CCCCCCCCC(=O)NCCOP(=O)([O-])OCC(COCC[C@@H](CCCCCCC)OC(=O)CCC/C=C\CCCCCC)NC(=O)CC(=O)CCCCCCCCCCC)NC(=O)CC(=O)CCCCCCCCCCC.[Na+].[Na+] (stereo partly drawn) [compound 111231] | – | 290 | THP-1 cell Stimulation (% of compound 100 at 10 μM) +serum (THP-1 cells): 17 % of compound 100 at 10 μM |
| CCCCCC/C=C\CCCC(=O)O[C@H](CCCCCCC)CCOCC(COP(=O)([O-])OCCNC(=O)CC(=O)NCCOP(=O)([O-])OCC(COCC[C@@H](CCCCCCC)OC(=O)CCC/C=C\CCCCCC)NC(=O)CCCCCCCCCCC)NC(=O)CCCCCCCCCCC.[Na+].[Na+] (stereo partly drawn) [compound 118999] | 105 % of LPS | – | – |
| CCCCCCCCCCCCCC(=O)O[C@@H](COCC[C@@H](CCCCCCC)OC(=O)CCCCCCCCCCC)COP(=O)([O-])OCCNC(=O)CC(=O)NCCOP(=O)([O-])OC[C@H](COCC[C@@H](CCCCCCC)OC(=O)CCCCCCCCCCC)OC(=O)CCCCCCCCCCCCC.[Na+].[Na+] [compound 803059] | 2 % of LPS | 890 | – |
| CCCCCCCCCCCCCC(=O)NC(COCC[C@@H](CCCCCCC)OC(=O)CCCCCCCCCCC)COP(=O)([O-])OCCNC(=O)NCCOP(=O)([O-])OCC(COCC[C@@H](CCCCCCC)OC(=O)CCCCCCCCCCC)NC(=O)CCCCCCCCCCCCC.[Na+].[Na+] (stereo partly drawn) [compound 119327] | 165 ± 33 (n = 3) % of LPS | 15 | – |
| CCCCCCCCCCCCCC(=O)NC(COCCC(CCCCCCC)OCCCCCCCCCCCC)COP(=O)(O)OCCCCCCCCOP(=O)(O)OCC(COCCC(CCCCCCC)OCCCCCCCCCCCC)NC(=O)CCCCCCCCCCCCC (mixture of isomers) [compound 804596] | – | > 10000 | – |
| CCCCCCCCCCCCCCN[C@@H](COCC[C@@H](CCCCCCC)OC(=O)CCCCCCCCCCC)COP(=O)(O)OCCNC(=O)NCCOP(=O)(O)OC[C@H](COCC[C@@H](CCCCCCC)OC(=O)CCCCCCCCCCC)NCCCCCCCCCCCCCC [compound 804252] | – | – | EC50 (Human Whole Blood; (576-021) + EtOH): 400 nM |
| CCCCCCCCCCCC(=O)NCC(=O)N[C@H](COCC[C@@H](CCCCCCC)OC(=O)CCCCCCCCCCC)COP(=O)(O)OCCNC(=O)NCCOP(=O)(O)OC[C@@H](COCC[C@@H](CCCCCCC)OC(=O)CCCCCCCCCCC)NC(=O)CNC(=O)CCCCCCCCCCC [compound 804221] | – | 2200 | – |
| CCCCCC/C=C\CCCC(=O)O[C@H](CCCCCCC)CCOCC(COP(=O)([O-])OCCNC(=O)C(Cc1ccc(O)cc1)C(=O)NCCOP(=O)([O-])OCC(COCC[C@@H](CCCCCCC)OC(=O)CCC/C=C\CCCCCC)NC(=O)CC(=O)CCCCCCCCCCC)NC(=O)CC(=O)CCCCCCCCCCC.[Na+].[Na+] (stereo partly drawn) [compound 118023] | 63 % of LPS | – | – |
| CCCCCC/C=C\CCCC(=O)O[C@H](CCCCCCC)CCOCC(COP(=O)([O-])OCCNC(=O)C(Cc1ccc(OCCNC(=O)OC(C)(C)C)cc1)C(=O)NCCOP(=O)([O-])OCC(COCC[C@@H](CCCCCCC)OC(=O)CCC/C=C\CCCCCC)NC(=O)CCCCCCCCCCCCC)NC(=O)CCCCCCCCCCCCC.[Na+].[Na+] (stereo partly drawn) [compound 119329] | 2 ± 2 (n = 2) % of LPS | – | – |
| CCCCCC/C=C\CCCC(=O)O[C@H](CCCCCCC)CCOCC(COP(=O)([O-])OCCNC(=O)CC(=O)NCCOP(=O)([O-])OCC(COCC[C@@H](CCCCCCC)OC(=O)CCC/C=C\CCCCCC)NC(=O)CCCCCCCCCCCCC)NC(=O)CCCCCCCCCCCCC.[Na+].[Na+] (stereo partly drawn) [compound 118989] | 159 % of LPS | 100 | – |
| CCCCCC/C=C\CCCC(=O)O[C@H](CCCCCCC)CC(=O)NC(COCC[C@H](O)CCCCCCC)COP(=O)([O-])OCCNC(=O)c1cc(O)cc(C(=O)NCCOP(=O)([O-])OCC(COCC[C@H](O)CCCCCCC)NC(=O)C[C@@H](CCCCCCC)OC(=O)CCC/C=C\CCCCCC)c1.[Na+].[Na+] (stereo partly drawn) [compound 113635] | 0 % of LPS | – | – |
| CCCCCC/C=C\CCCC(=O)O[C@H](CCCCCCC)CC(=O)NC(COCC[C@H](O)CCCCCCC)COP(=O)([O-])OCCNC(=O)C1OC(C)(C)OC1C(=O)NCCOP(=O)([O-])OCC(COCC[C@H](O)CCCCCCC)NC(=O)C[C@@H](CCCCCCC)OC(=O)CCC/C=C\CCCCCC.[Na+].[Na+] (stereo partly drawn) [compound 113634] | 0 % of LPS | – | – |
| CCCCCCCCCCCC(=O)CC(=O)NC(COCC[C@H](O)CCCCCCC)COP(=O)([O-])OCCNC(=O)NCCOP(=O)([O-])OCC(COCC[C@H](O)CCCCCCC)NC(=O)CC(=O)CCCCCCCCCCC.[Na+].[Na+] (stereo partly drawn) [compound 112043] | 0 % of LPS | – | – |
